Test results as given in the NIST ThermoML archive (doi:10.1016/j.fluid.2010.03.010).

Conditions: Liquid, Vibrating tube method

CCCCn1cc[n+](C)c1.N#CN=C=[N-] [1-butyl-3-methylimidazolium dicyanamide]
Conditions	mass density [kg/m3]
293.15 K, 100 kPa	1064.4
293.15 K, 101.33 kPa	1063.73
293.15 K, 250 kPa	1064.4
293.15 K, 500 kPa	1064.5
293.15 K, 1000 kPa	1064.7
293.15 K, 2000 kPa	1065.1
293.15 K, 4990 kPa	1066.2
293.15 K, 10010 kPa	1068.2
293.15 K, 15000 kPa	1070
293.15 K, 20000 kPa	1071.9
293.15 K, 25000 kPa	1073.6
293.15 K, 30000 kPa	1075.4
293.15 K, 35000 kPa	1077.1
293.15 K, 40000 kPa	1078.9
293.15 K, 45000 kPa	1080.5
293.15 K, 50000 kPa	1082.2
293.15 K, 55000 kPa	1083.8
293.15 K, 60000 kPa	1085.4
294.15 K, 101.33 kPa	1063.09
295.15 K, 101.33 kPa	1062.45
296.15 K, 101.33 kPa	1061.81
297.15 K, 101.33 kPa	1061.17
298.15 K, 101.33 kPa	1060.53
299.15 K, 101.33 kPa	1059.89
300.15 K, 101.33 kPa	1059.26
301.15 K, 101.33 kPa	1058.62
302.15 K, 101.33 kPa	1057.99
303.15 K, 100 kPa	1057.9
303.15 K, 101.33 kPa	1057.35
303.15 K, 250 kPa	1057.9
303.15 K, 500 kPa	1058
303.15 K, 1000 kPa	1058.2
303.15 K, 2000 kPa	1058.6
303.15 K, 4990 kPa	1059.8
303.15 K, 10000 kPa	1061.8
303.15 K, 14990 kPa	1063.6
303.15 K, 20010 kPa	1065.5
303.15 K, 25000 kPa	1067.4
303.15 K, 30000 kPa	1069.2
303.15 K, 34990 kPa	1070.9
303.15 K, 40000 kPa	1072.7
303.15 K, 45000 kPa	1074.4
303.15 K, 50000 kPa	1076.1
303.15 K, 55000 kPa	1077.8
303.15 K, 60000 kPa	1079.4
304.15 K, 101.33 kPa	1056.72
305.15 K, 101.33 kPa	1056.09
306.15 K, 101.33 kPa	1055.45
307.15 K, 101.33 kPa	1054.82
308.15 K, 101.33 kPa	1054.19
309.15 K, 101.33 kPa	1053.56
310.15 K, 101.33 kPa	1052.93
311.15 K, 101.33 kPa	1052.31
312.15 K, 101.33 kPa	1051.68
313.15 K, 100 kPa	1051.5
313.15 K, 101.33 kPa	1051.05
313.15 K, 250 kPa	1051.5
313.15 K, 500 kPa	1051.6
313.15 K, 1000 kPa	1051.8
313.15 K, 2000 kPa	1052.3
313.15 K, 4990 kPa	1053.4
313.15 K, 10000 kPa	1055.5
313.15 K, 14990 kPa	1057.4
313.15 K, 20010 kPa	1059.4
313.15 K, 25000 kPa	1061.2
313.15 K, 30000 kPa	1063.1
313.15 K, 35000 kPa	1064.9
313.15 K, 40010 kPa	1066.7
313.15 K, 45000 kPa	1068.4
313.15 K, 50000 kPa	1070.2
313.15 K, 55010 kPa	1071.9
313.15 K, 60000 kPa	1073.6
314.15 K, 101.33 kPa	1050.43
315.15 K, 101.33 kPa	1049.8
316.15 K, 101.33 kPa	1049.18
317.15 K, 101.33 kPa	1048.56
318.15 K, 101.33 kPa	1047.94
319.15 K, 101.33 kPa	1047.32
320.15 K, 101.33 kPa	1046.7
321.15 K, 101.33 kPa	1046.08
322.15 K, 101.33 kPa	1045.46
323.15 K, 100 kPa	1045.2
323.15 K, 101.33 kPa	1044.84
323.15 K, 250 kPa	1045.3
323.15 K, 500 kPa	1045.4
323.15 K, 1000 kPa	1045.6
323.15 K, 2010 kPa	1046
323.15 K, 4990 kPa	1047.3
323.15 K, 10010 kPa	1049.3
323.15 K, 14990 kPa	1051.3
323.15 K, 20010 kPa	1053.3
323.15 K, 25000 kPa	1055.2
323.15 K, 30010 kPa	1057.1
323.15 K, 34990 kPa	1058.9
323.15 K, 40000 kPa	1060.8
323.15 K, 45000 kPa	1062.6
323.15 K, 50000 kPa	1064.4
323.15 K, 55000 kPa	1066.1
323.15 K, 60000 kPa	1067.8
324.15 K, 101.33 kPa	1044.22
325.15 K, 101.33 kPa	1043.61
326.15 K, 101.33 kPa	1042.99
327.15 K, 101.33 kPa	1042.37
328.15 K, 101.33 kPa	1041.76
329.15 K, 101.33 kPa	1041.14
330.15 K, 101.33 kPa	1040.53
331.15 K, 101.33 kPa	1039.92
332.15 K, 101.33 kPa	1039.3
333.15 K, 100 kPa	1039
333.15 K, 101.33 kPa	1038.69
333.15 K, 250 kPa	1039.1
333.15 K, 500 kPa	1039.2
333.15 K, 1000 kPa	1039.4
333.15 K, 2000 kPa	1039.9
333.15 K, 4990 kPa	1041.1
333.15 K, 10000 kPa	1043.2
333.15 K, 15000 kPa	1045.2
333.15 K, 20000 kPa	1047.3
333.15 K, 25000 kPa	1049.2
333.15 K, 30000 kPa	1051.3
333.15 K, 34990 kPa	1053.1
333.15 K, 40000 kPa	1055
333.15 K, 45010 kPa	1056.8
333.15 K, 50000 kPa	1058.6
333.15 K, 55000 kPa	1060.4
333.15 K, 60000 kPa	1062.2
334.15 K, 101.33 kPa	1038.08
335.15 K, 101.33 kPa	1037.47
336.15 K, 101.33 kPa	1036.86
337.15 K, 101.33 kPa	1036.25
338.15 K, 101.33 kPa	1035.64
339.15 K, 101.33 kPa	1035.03
340.15 K, 101.33 kPa	1034.42
341.15 K, 101.33 kPa	1033.82
342.15 K, 101.33 kPa	1033.21
343.15 K, 100 kPa	1032.9
343.15 K, 101.33 kPa	1032.61
343.15 K, 250 kPa	1033
343.15 K, 500 kPa	1033.1
343.15 K, 1000 kPa	1033.3
343.15 K, 2000 kPa	1033.7
343.15 K, 4990 kPa	1035
343.15 K, 10010 kPa	1037.2
343.15 K, 15000 kPa	1039.2
343.15 K, 20010 kPa	1041.4
343.15 K, 25000 kPa	1043.3
343.15 K, 30000 kPa	1045.4
343.15 K, 35010 kPa	1047.3
343.15 K, 40000 kPa	1049.3
343.15 K, 45000 kPa	1051.1
343.15 K, 50000 kPa	1053
343.15 K, 55000 kPa	1054.7
343.15 K, 60000 kPa	1056.6
344.15 K, 101.33 kPa	1032
345.15 K, 101.33 kPa	1031.4
346.15 K, 101.33 kPa	1030.79
347.15 K, 101.33 kPa	1030.19
348.15 K, 101.33 kPa	1029.59
349.15 K, 101.33 kPa	1028.98
350.15 K, 101.33 kPa	1028.38
351.15 K, 101.33 kPa	1027.78
352.15 K, 101.33 kPa	1027.18
353.15 K, 100 kPa	1026.8
353.15 K, 101.33 kPa	1026.58
353.15 K, 250 kPa	1026.9
353.15 K, 500 kPa	1027
353.15 K, 1000 kPa	1027.2
353.15 K, 2000 kPa	1027.7
353.15 K, 5000 kPa	1029
353.15 K, 10000 kPa	1031.3
353.15 K, 15000 kPa	1033.4
353.15 K, 20000 kPa	1035.5
353.15 K, 25000 kPa	1037.5
353.15 K, 30010 kPa	1039.6
353.15 K, 35000 kPa	1041.6
353.15 K, 40000 kPa	1043.6
353.15 K, 45000 kPa	1045.4
353.15 K, 50000 kPa	1047.4
353.15 K, 55000 kPa	1049.2
353.15 K, 60000 kPa	1051
354.15 K, 101.33 kPa	1025.98
355.15 K, 101.33 kPa	1025.38
356.15 K, 101.33 kPa	1024.79
357.15 K, 101.33 kPa	1024.19
358.15 K, 101.33 kPa	1023.59
359.15 K, 101.33 kPa	1022.99
360.15 K, 101.33 kPa	1022.4
361.15 K, 101.33 kPa	1021.8
362.15 K, 101.33 kPa	1021.21
363.15 K, 100 kPa	1020.8
363.15 K, 101.33 kPa	1020.61
363.15 K, 250 kPa	1020.9
363.15 K, 500 kPa	1021
363.15 K, 1000 kPa	1021.3
363.15 K, 2000 kPa	1021.7
363.15 K, 4990 kPa	1023.1
363.15 K, 10000 kPa	1025.4
363.15 K, 14990 kPa	1027.6
363.15 K, 20010 kPa	1029.8
363.15 K, 25010 kPa	1031.8
363.15 K, 30000 kPa	1033.9
363.15 K, 35000 kPa	1035.9
363.15 K, 40000 kPa	1038
363.15 K, 45000 kPa	1039.9
363.15 K, 50000 kPa	1041.8
363.15 K, 55000 kPa	1043.7
363.15 K, 60000 kPa	1045.6
373.15 K, 100 kPa	1014.9
373.15 K, 250 kPa	1015
373.15 K, 500 kPa	1015.1
373.15 K, 1000 kPa	1015.4
373.15 K, 2000 kPa	1015.8
373.15 K, 4990 kPa	1017.2
373.15 K, 10000 kPa	1019.5
373.15 K, 15000 kPa	1021.8
373.15 K, 20000 kPa	1024
373.15 K, 25000 kPa	1026.2
373.15 K, 30000 kPa	1028.3
373.15 K, 35000 kPa	1030.3
373.15 K, 40000 kPa	1032.4
373.15 K, 45000 kPa	1034.4
373.15 K, 50000 kPa	1036.4
373.15 K, 55000 kPa	1038.3
373.15 K, 60000 kPa	1040.2
393.15 K, 100 kPa	1003.2
393.15 K, 250 kPa	1003.3
393.15 K, 500 kPa	1003.4
393.15 K, 1000 kPa	1003.7
393.15 K, 2000 kPa	1004.1
393.15 K, 4990 kPa	1005.6
393.15 K, 10010 kPa	1008.1
393.15 K, 15000 kPa	1010.4
393.15 K, 20010 kPa	1012.8
393.15 K, 25000 kPa	1015
393.15 K, 30000 kPa	1017.2
393.15 K, 35000 kPa	1019.4
393.15 K, 40000 kPa	1021.6
393.15 K, 45000 kPa	1023.6
393.15 K, 50000 kPa	1025.7
393.15 K, 55000 kPa	1027.7
393.15 K, 60000 kPa	1029.6
